Results on 8 compounds are retold here after article PMC11558128 (Advanced Science, 2024).

Positions of bridges follow the written chain, without caps; N, C: chain ends. Residues, ends and D or L forms follow the SMILES beside them.

In the first test the target is T1, rKv4.2 (Rattus norvegicus, UniProt Q63881).
T1 construct: expressed in transfected cells; host or cells: HEK293T
T1 sequence (Q63881 1-630): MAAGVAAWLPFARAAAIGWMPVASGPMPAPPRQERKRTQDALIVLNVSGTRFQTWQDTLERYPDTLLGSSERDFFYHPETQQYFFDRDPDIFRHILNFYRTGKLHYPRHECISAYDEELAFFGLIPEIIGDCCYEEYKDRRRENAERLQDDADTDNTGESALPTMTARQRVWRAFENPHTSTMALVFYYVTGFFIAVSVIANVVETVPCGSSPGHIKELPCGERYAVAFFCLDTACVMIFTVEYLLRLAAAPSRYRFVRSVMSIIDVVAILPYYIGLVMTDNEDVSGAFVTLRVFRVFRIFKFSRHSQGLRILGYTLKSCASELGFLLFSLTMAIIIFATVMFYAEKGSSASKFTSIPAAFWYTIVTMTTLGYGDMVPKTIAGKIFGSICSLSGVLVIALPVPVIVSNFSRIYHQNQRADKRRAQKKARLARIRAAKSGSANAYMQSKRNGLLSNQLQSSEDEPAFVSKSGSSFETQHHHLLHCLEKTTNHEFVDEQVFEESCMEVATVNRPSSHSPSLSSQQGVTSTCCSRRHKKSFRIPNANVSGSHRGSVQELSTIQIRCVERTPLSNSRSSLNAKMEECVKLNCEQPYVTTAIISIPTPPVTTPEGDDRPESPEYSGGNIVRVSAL
The test is described as follows: cell-based. The conditions noted are these: analogue compared with its parent toxin.
`CC(C)C[C@H](NC(=O)[C@H](Cc1ccc(O)cc1)NC(=O)[C@@H](NC(=O)[C@H](CCCCN)NC(=O)[C@@H]1CSSC[C@@H]2NC(=O)[C@H](CCC(=O)O)NC(=O)[C@H](CC(N)=O)NC(=O)[C@H](CCCCN)NC(=O)CNC(=O)[C@@H]3CCCN3C(=O)[C@H]([C@@H](C)O)NC(=O)[C@@H]3CSSC[C@H](NC(=O)[C@H](C)NC(=O)[C@H](Cc4ccc(O)cc4)NC(=O)[C@H](CC(N)=O)NC(=O)[C@@H]4CCCN4C(=O)[C@H](CSSC[C@H](NC(=O)CN)C(=O)N[C@@H](CCCCN)C(=O)NCC(=O)N[C@@H](Cc4ccccc4)C(=O)NCC(=O)N[C@@H](CC(=O)O)C(=O)N[C@@H](CO)C(=O)N3)NC2=O)C(=O)N[C@@H](CO)C(=O)N[C@@H](CO)C(=O)N[C@@H](CCCCN)C(=O)N[C@@H](Cc2c[nH]cn2)C(=O)N[C@@H](CCCCN)C(=O)N[C@@H](C)C(=O)N1)C(C)C)C(N)=O` [W28A] (H-GCKGFGDSCTPGKNECCPNYACSSKHKACKVYL-NH2; disulfide 2-17, 9-22, 16-29; N-terminus and C-terminus assumed): the “inhibition of rKv4.2, in words” value is “dramatically decreased inhibition”.

For the compound `CC(C)C[C@@H]1NC(=O)[C@H](Cc2ccc(O)cc2)NC(=O)[C@H](CC(N)=O)NC(=O)[C@H](CCCCN)NC(=O)[C@@H]2CSSC[C@H](NC(=O)CNC(=O)[C@@H](N)CCCCN)C(=O)N[C@@H](CCCCN)C(=O)NCC(=O)N[C@@H](Cc3ccccc3)C(=O)NCC(=O)N[C@@H](CC(=O)O)C(=O)N[C@@H](CO)C(=O)N[C@H]3CSSC[C@H](NC1=O)C(=O)N[C@@H](CO)C(=O)N[C@@H](CO)C(=O)N[C@@H](C)C(=O)N[C@@H](Cc1c[nH]cn1)C(=O)N[C@@H](CCCCN)C(=O)N[C@@H](Cc1c[nH]c4ccccc14)C(=O)N[C@H](C(=O)N[C@@H](CCCCN)C(=O)N[C@H](C(=O)N[C@@H](Cc1ccc(O)cc1)C(=O)N[C@@H](CC(C)C)C(=O)N[C@H](C(N)=O)C(C)C)C(C)C)CSSC[C@H](NC(=O)[C@H](CCC(=O)O)NC(=O)[C@H](CC(N)=O)NC(=O)[C@H](CCCCN)NC(=O)CNC(=O)[C@@H]1CCCN1C(=O)[C@H]([C@@H](C)O)NC3=O)C(=O)N2` [HNTX-III-H4-K25A] (H-KGCKGFGDSCTPGKNECCKNYLCSSAHKWCKVYLV-NH2; disulfide 3-18, 10-23, 17-30; N-terminus and C-terminus assumed), the “inhibition of rKv4.2, in words” value is listed as “disappeared”.

Staying with this test, now noted: whole-cell patch clamp, HEK293T; mean ± SEM, n = 3-8; SEM; read-out: IC50 on rKv4.2 WT.
The IC50 is the point on the concentration scale where inhibition reaches its midpoint. Turning to `CC(C)C[C@H](NC(=O)[C@H](Cc1ccc(O)cc1)NC(=O)[C@@H](NC(=O)[C@H](CCCCN)NC(=O)[C@@H]1CSSC[C@@H]2NC(=O)[C@H](CCC(=O)O)NC(=O)[C@H](CC(N)=O)NC(=O)[C@H](CCCCN)NC(=O)CNC(=O)[C@@H]3CCCN3C(=O)[C@H]([C@@H](C)O)NC(=O)[C@@H]3CSSC[C@H](NC(=O)[C@H](C)NC(=O)[C@H](Cc4ccc(O)cc4)NC(=O)[C@H](CC(N)=O)NC(=O)[C@@H]4CCCN4C(=O)[C@H](CSSC[C@H](NC(=O)CN)C(=O)N[C@@H](CCCCN)C(=O)NCC(=O)N[C@@H](Cc4c[nH]c5ccccc45)C(=O)NCC(=O)N[C@@H](CC(=O)O)C(=O)N[C@@H](CO)C(=O)N3)NC2=O)C(=O)N[C@@H](CO)C(=O)N[C@@H](CO)C(=O)N[C@@H](CCCCN)C(=O)N[C@@H](Cc2c[nH]cn2)C(=O)N[C@@H](CCCCN)C(=O)N[C@@H](Cc2c[nH]c3ccccc23)C(=O)N1)C(C)C)C(N)=O` [F5W] (H-GCKGWGDSCTPGKNECCPNYACSSKHKWCKVYL-NH2; disulfide 2-17, 9-22, 16-29), the IC50 was 833 ± 81 nM.

Regarding `CC(C)C[C@H](NC(=O)[C@H](Cc1ccc(O)cc1)NC(=O)[C@@H](NC(=O)[C@H](CCCCN)NC(=O)[C@@H]1CSSC[C@@H]2NC(=O)[C@H](CCC(=O)O)NC(=O)[C@H](CC(N)=O)NC(=O)[C@H](CCCCN)NC(=O)CNC(=O)[C@@H]3CCCN3C(=O)[C@H]([C@@H](C)O)NC(=O)[C@@H]3CSSC[C@H](NC(=O)[C@H](C)NC(=O)[C@H](Cc4ccc(O)cc4)NC(=O)[C@H](CC(N)=O)NC(=O)[C@@H]4CCCN4C(=O)[C@H](CSSC[C@H](NC(=O)[C@@H](N)Cc4ccccc4)C(=O)N[C@@H](CCCCN)C(=O)NCC(=O)N[C@@H](Cc4ccccc4)C(=O)NCC(=O)N[C@@H](CC(=O)O)C(=O)N[C@@H](CO)C(=O)N3)NC2=O)C(=O)N[C@@H](CO)C(=O)N[C@@H](CO)C(=O)N[C@@H](CCCCN)C(=O)N[C@@H](Cc2c[nH]cn2)C(=O)N[C@@H](CCCCN)C(=O)N[C@@H](Cc2c[nH]c3ccccc23)C(=O)N1)C(C)C)C(N)=O` [G1F] (H-FCKGFGDSCTPGKNECCPNYACSSKHKWCKVYL-NH2; disulfide 2-17, 9-22, 16-29), the IC50 is 176 ± 47 nM.

Regarding `CC(C)C[C@H](NC(=O)[C@H](Cc1ccc(O)cc1)NC(=O)[C@@H](NC(=O)[C@H](CCCCN)NC(=O)[C@@H]1CSSC[C@@H]2NC(=O)[C@H](CCC(=O)O)NC(=O)[C@H](CC(N)=O)NC(=O)[C@H](CCCCN)NC(=O)CNC(=O)[C@@H]3CCCN3C(=O)[C@H](CCC(=O)O)NC(=O)[C@@H]3CSSC[C@H](NC(=O)[C@H](C)NC(=O)[C@H](Cc4ccc(O)cc4)NC(=O)[C@H](CC(N)=O)NC(=O)[C@@H]4CCCN4C(=O)[C@H](CSSC[C@H](NC(=O)CN)C(=O)N[C@@H](CCCCN)C(=O)NCC(=O)N[C@@H](Cc4ccccc4)C(=O)NCC(=O)N[C@@H](CC(=O)O)C(=O)N[C@@H](CO)C(=O)N3)NC2=O)C(=O)N[C@@H](CO)C(=O)N[C@@H](CO)C(=O)N[C@@H](CCCCN)C(=O)N[C@@H](Cc2c[nH]cn2)C(=O)N[C@@H](CCCCN)C(=O)N[C@@H](Cc2c[nH]c3ccccc23)C(=O)N1)C(C)C)C(N)=O` [T10E] (H-GCKGFGDSCEPGKNECCPNYACSSKHKWCKVYL-NH2; disulfide 2-17, 9-22, 16-29), the IC50 turned out to be 452 ± 221 nM.

Take `CC(C)C[C@H](NC(=O)[C@H](Cc1ccc(O)cc1)NC(=O)[C@@H](NC(=O)[C@H](CCCCN)NC(=O)[C@@H]1CSSC[C@@H]2NC(=O)[C@H](CCC(=O)O)NC(=O)[C@H](CC(N)=O)NC(=O)[C@H](CCCCN)NC(=O)CNC(=O)[C@@H]3CCCN3C(=O)[C@H]([C@@H](C)O)NC(=O)[C@@H]3CSSC[C@H](NC(=O)[C@H](C(C)C)NC(=O)[C@H](Cc4ccc(O)cc4)NC(=O)[C@H](CC(N)=O)NC(=O)[C@@H]4CCCN4C(=O)[C@H](CSSC[C@H](NC(=O)CN)C(=O)N[C@@H](CCCCN)C(=O)NCC(=O)N[C@@H](Cc4ccccc4)C(=O)NCC(=O)N[C@@H](CC(=O)O)C(=O)N[C@@H](CO)C(=O)N3)NC2=O)C(=O)N[C@@H](CO)C(=O)N[C@@H](CO)C(=O)N[C@@H](CCCCN)C(=O)N[C@@H](Cc2c[nH]cn2)C(=O)N[C@@H](CCCCN)C(=O)N[C@@H](Cc2c[nH]c3ccccc23)C(=O)N1)C(C)C)C(N)=O` [A21V] (H-GCKGFGDSCTPGKNECCPNYVCSSKHKWCKVYL-NH2; disulfide 2-17, 9-22, 16-29): the IC50 worked out at 1000 ± 144 nM.

As for `CC(C)C[C@H](NC(=O)[C@H](Cc1ccc(O)cc1)NC(=O)[C@@H](NC(=O)[C@H](CCCCN)NC(=O)[C@@H]1CSSC[C@@H]2NC(=O)[C@H](CCC(=O)O)NC(=O)[C@H](CC(N)=O)NC(=O)[C@H](CCCCN)NC(=O)[C@H](CCC(=O)O)NC(=O)[C@@H]3CCCN3C(=O)[C@H]([C@@H](C)O)NC(=O)[C@@H]3CSSC[C@H](NC(=O)[C@H](C)NC(=O)[C@H](Cc4ccc(O)cc4)NC(=O)[C@H](CC(N)=O)NC(=O)[C@@H]4CCCN4C(=O)[C@H](CSSC[C@H](NC(=O)CN)C(=O)N[C@@H](CCCCN)C(=O)NCC(=O)N[C@@H](Cc4ccccc4)C(=O)NCC(=O)N[C@@H](CC(=O)O)C(=O)N[C@@H](CO)C(=O)N3)NC2=O)C(=O)N[C@@H](CO)C(=O)N[C@@H](CO)C(=O)N[C@@H](CCCCN)C(=O)N[C@@H](Cc2c[nH]cn2)C(=O)N[C@@H](CCCCN)C(=O)N[C@@H](Cc2c[nH]c3ccccc23)C(=O)N1)C(C)C)C(N)=O` [G12E] (H-GCKGFGDSCTPEKNECCPNYACSSKHKWCKVYL-NH2; disulfide 2-17, 9-22, 16-29), the IC50 turned out to be 359 ± 82 nM.

Turning to `CC(C)C[C@H](NC(=O)[C@H](Cc1ccc(O)cc1)NC(=O)[C@@H](NC(=O)[C@H](CCCCN)NC(=O)[C@@H]1CSSC[C@@H]2NC(=O)[C@H](CCC(=O)O)NC(=O)[C@H](CC(N)=O)NC(=O)[C@H](CCCCN)NC(=O)CNC(=O)[C@@H]3CCCN3C(=O)[C@H]([C@@H](C)O)NC(=O)[C@@H]3CSSC[C@H](NC(=O)[C@H](C)NC(=O)[C@H](Cc4ccc(O)cc4)NC(=O)[C@H](CC(N)=O)NC(=O)[C@H](CCCCN)NC(=O)[C@H](CSSC[C@H](NC(=O)CN)C(=O)N[C@@H](CCCCN)C(=O)NCC(=O)N[C@@H](Cc4ccccc4)C(=O)NCC(=O)N[C@@H](CC(=O)O)C(=O)N[C@@H](CO)C(=O)N3)NC2=O)C(=O)N[C@@H](CO)C(=O)N[C@@H](CO)C(=O)N[C@@H](CCCCN)C(=O)N[C@@H](Cc2c[nH]cn2)C(=O)N[C@@H](CCCCN)C(=O)N[C@@H](Cc2c[nH]c3ccccc23)C(=O)N1)C(C)C)C(N)=O` [P18K] (H-GCKGFGDSCTPGKNECCKNYACSSKHKWCKVYL-NH2; disulfide 2-17, 9-22, 16-29), the IC50 was 167 ± 117 nM.
